Columns and labels:
[1] = tested on: ISG transcription in HeLa cell nuclei; experiment: Run-on nuclear transcription in HeLa nuclei; assay type: cell-based, human
Excerpt: FIG. 2. […] (A) Nuclear extracts from HEK293T cells expressing activated recombinant ISGF3 (STAT1, STAT2, IRF9 and JAK1) or transfected with vector (Ctl) were programmed with G6TI-CAT (G6TI) or p107 (ISG54) templates. Radiolabeled RNA transcripts were resolved by polyacrylamide-urea gel electrophoresis. Arrow and arrowhead indicate position of the transcripts from G6TI-CAT and p107, respectively. (B) HeLa cells were either left untreated or treated with IFN-α in the absence or presence of TSA (TSA in vivo) before nuclei were isolated for run-on transcription. Where indicated, TSA was added to the elongation reaction in vitro (TSA in vitro). Specific signals from γ-actin, ISG15, ISG56, 6-16, 9-27, IRF9 and GBP transcription were quantified following filter hybridization and normalized to the signal for GAPDH, arbitrarily set to 100. […] Mononucleosomal DNA fraction was purified from MNase-digested nuclei and analyzed for nucleosome positions by PCR quantitation of protected fragments. All samples were quantified by real-time PCR, except the—53—+1 ISG54 fragment, which was quantified by gel electrophoresis (C). […]
Run-off transcription is largely a measure of transcriptional […]. […] Nuclei were isolated from cells untreated or treated with IFNα, pulse-labeled in vitro with radioactive nucleotides, and specific transcriptional elongation was quantified by filter hybridization (FIG. 2B). […]

[2] = tested on: ISG54 promoter and G6TI control templates; experiment: In vitro transcription run-off assay with nuclear extracts and recombinant ISGF3; assay type: biochemical, human; details: TSA included in run-off reaction, naked DNA templates
Excerpt: (§1) FIG. 2. […] (A) Nuclear extracts from HEK293T cells expressing activated recombinant ISGF3 (STAT1, STAT2, IRF9 and JAK1) or transfected with vector (Ctl) were programmed with G6TI-CAT (G6TI) or p107 (ISG54) templates. Radiolabeled RNA transcripts were resolved by polyacrylamide-urea gel electrophoresis. Arrow and arrowhead indicate position of the transcripts from G6TI-CAT and p107, respectively. (B) HeLa cells were either left untreated or treated with IFN-α in the absence or presence of TSA (TSA in vivo) before nuclei were isolated for run-on transcription. Where indicated, TSA was added to the elongation reaction in vitro (TSA in vitro). Specific signals from γ-actin, ISG15, ISG56, 6-16, 9-27, IRF9 and GBP transcription were quantified following filter hybridization and normalized to the signal for GAPDH, arbitrarily set to 100. Representative data from three independent experiments are shown. FS2 human diploid fibroblasts were starved for 72 h before being treated with IFN-α for 7.5 h in the absence or presence of TSA. Mononucleosomal DNA fraction was purified from MNase-digested nuclei and analyzed for nucleosome positions by PCR quantitation of protected fragments. All samples were quantified by real-time PCR, except the—53—+1 ISG54 fragment, which was quantified by gel electrophoresis (C). […]

[3] = tested on: ISG54 promoter nucleosomes in FS2 human diploid fibroblasts; experiment: MNase-PCR nucleosome mapping of the ISG54 promoter in FS2 fibroblasts; assay type: cell-based
Excerpt: as §1

- nuclease sensitivity of segments around TATA box and initiation site ([3]; MNase): minimally affected
- IFN-induced increase of nuclease sensitivity of −92 to −33 ISRE segment ([3]; co-treatment with IFN): not prevented
SMILES: CC(/C=C/C(=O)NO)=C\[C@@H](C)C(=O)c1ccc(N(C)C)cc1 [TSA, Trichostatin A]
- housekeeping and ISG transcription in nuclear run-on ([1]; TSA added to the in vitro run-on reaction): failed to affect
- ISG transcription in isolated nuclei ([1]; cells stimulated with IFN in the presence of TSA (TSA in vivo)): impaired
- inhibition of basal and ISGF3-dependent transcription in vitro [2]: neither basal nor ISGF3-dependent transcription was inhibited
